From US10837909B2, “Super-resolution fluorescent imaging probe” (The University of Tokyo, priority 2015, dated 2020)

Experiments:
[1] = Laser flash photolysis: nucleophilic addition reaction rate constant and time constant with glutathione; type: physicochemical; conditions: pH 7.4, 10 mM sodium phosphate buffer, 295 K
Protocol: Change over time of transient absorption of the probe compounds of the present invention at various glutathione concentrations was measured using laser flash photolysis, and a nucleophilic addition reaction rate constant k and a nucleophilic addition reaction rime constant T in the nucleophilic addition-dissociation equilibrium reaction between glutathione and the probe compounds of the present invention were calculated. The solution conditions were […] aqueous solution and pH 7.4 (10 mM sodium phosphate buffer). A measurement condition was 295 K and a light source was a 10 mJ/pulse XeCl excimer laser ([…]).

[2] = Measurement of the fluorescence quantum yield; type: physicochemical; conditions: 1 μM probe, 1% DMSO aqueous solution, pH 7.4 (200 mM sodium phosphate buffer)
Protocol: Fluorescence quantum yield of the probe compounds according to the present invention was measured. The solution conditions were 1 μM probe compound, 1% DMSO aqueous solution, and pH 7.4 (200 mM sodium phosphate buffer).

Row | Compound | k (nucleophilic addition reaction rate constant) ([1]; glutathione 0.5 mM) | τ (nucleophilic addition reaction time constant) ([1]; glutathione 0.5 mM) | k (nucleophilic addition reaction rate constant) ([1]; glutathione 1 mM) | τ (nucleophilic addition reaction time constant) ([1]; glutathione 1 mM) | k (nucleophilic addition reaction rate constant) ([1]; glutathione 5 mM) | τ (nucleophilic addition reaction time constant) ([1]; glutathione 5 mM) | k (nucleophilic addition reaction rate constant) ([1]; glutathione 10 mM) | τ (nucleophilic addition reaction time constant) ([1]; glutathione 10 mM) | k (nucleophilic addition reaction rate constant) ([1]; glutathione 0.1 mM) | τ (nucleophilic addition reaction time constant) ([1]; glutathione 0.1 mM) | Fluorescence quantum yield [2]
1 | C[Si]1(C)C2=CC(=N)C=CC2=C(c2ccccc2)c2ccc(N)cc21 [Compound 2] | 1.21 s⁻¹ | 823 ms | 2.05 s⁻¹ | 487 ms | 11.0 s⁻¹ | 90.7 ms | 25.0 s⁻¹ | 40.1 ms | – | – | –
2 | CN(C)c1ccc2c(c1)[Si](C)(C)C1=CC(=[N+](C)C)C=CC1=C2 [Compound 5] | 95.8 s⁻¹ | 10.4 ms | 176.2 s⁻¹ | 5.67 ms | 976 s⁻¹ | 1.02 ms | 2290 s⁻¹ | 0.436 ms | 14.3 s⁻¹ | 69.9 ms | 0.39
3 | CN(C)c1ccc2c(c1)[Si](C)(C)C1=C/C(=[N+](\C)CCCC(=O)O)C=CC1=C2 [Compound 12] | 42.8 s⁻¹ | 23.4 ms | 75.6 s⁻¹ | 13.2 ms | 444 s⁻¹ | 2.25 ms | 1080 s⁻¹ | 0.93 ms | 7.49 s⁻¹ | 134 ms | 0.46
4 | CN(C)c1ccc2c(c1)[Si](C)(C)C1=C/C(=[N+](\C)CCCC(=O)NCc3ccc(COc4nc(N)nc5[nH]cnc45)cc3)C=CC1=C2 [Compound 14] | – | – | – | – | – | – | – | – | – | – | 0.27
5 | CN(C)c1ccc2c(c1)[Si](C)(C)C1=C/C(=[N+](\C)CCCC(=O)NCCOCCOCCCCCCCl)C=CC1=C2 [Compound 16] | – | – | – | – | – | – | – | – | – | – | 0.49
6 | CN(C)c1ccc2c(c1)[Si](C)(C)C1=C/C(=[N+](\C)CCCC(=O)ON3C(=O)CCC3=O)C=CC1=C2 [Compound 17] | – | – | – | – | – | – | – | – | – | – | 0.46
7 | CC1(C)C2=CC(=N)C=CC2=Cc2ccc(N)cc21 [Compound 28] | 195 s⁻¹ | 5.12 ms | 371 s⁻¹ | 2.69 ms | 2170 s⁻¹ | 0.46 ms | 5260 s⁻¹ | 0.19 ms | 21.1 s⁻¹ | 47.5 ms | 0.70
8 | CC1(C)C2=C/C(=N/CCCC(=O)O)C=CC2=Cc2ccc(N)cc21 [Compound 32] | 61.7 s⁻¹ | 16.2 ms | 106 s⁻¹ | 9.45 ms | 592 s⁻¹ | 1.69 ms | 1410 s⁻¹ | 0.71 ms | 15.8 s⁻¹ | 63.1 ms | 0.69
